What follows are compounds tested against T1, leucocyte 5-lipoxygenase (Rattus norvegicus, UniProt P12527) (assay: Inhibitory activity against leucocyte 5-lipoxygenase (5-HETE formation by HPLC, RBL-1 cells as enzyme source)). Conditions: rat basophilic leukemia cells (RBL-1) as source of 5-lipoxygenase; arachidonic acid substrate; 37°C; pH 7.4.
T1 construct: rat basophilic leukemia cells (RBL-1, ATCC No. CRL 1378) were used as the source of 5-lipoxygenase; host or cells: RBL-1 rat basophilic leukemia cells
T1 sequence (P12527 1-673): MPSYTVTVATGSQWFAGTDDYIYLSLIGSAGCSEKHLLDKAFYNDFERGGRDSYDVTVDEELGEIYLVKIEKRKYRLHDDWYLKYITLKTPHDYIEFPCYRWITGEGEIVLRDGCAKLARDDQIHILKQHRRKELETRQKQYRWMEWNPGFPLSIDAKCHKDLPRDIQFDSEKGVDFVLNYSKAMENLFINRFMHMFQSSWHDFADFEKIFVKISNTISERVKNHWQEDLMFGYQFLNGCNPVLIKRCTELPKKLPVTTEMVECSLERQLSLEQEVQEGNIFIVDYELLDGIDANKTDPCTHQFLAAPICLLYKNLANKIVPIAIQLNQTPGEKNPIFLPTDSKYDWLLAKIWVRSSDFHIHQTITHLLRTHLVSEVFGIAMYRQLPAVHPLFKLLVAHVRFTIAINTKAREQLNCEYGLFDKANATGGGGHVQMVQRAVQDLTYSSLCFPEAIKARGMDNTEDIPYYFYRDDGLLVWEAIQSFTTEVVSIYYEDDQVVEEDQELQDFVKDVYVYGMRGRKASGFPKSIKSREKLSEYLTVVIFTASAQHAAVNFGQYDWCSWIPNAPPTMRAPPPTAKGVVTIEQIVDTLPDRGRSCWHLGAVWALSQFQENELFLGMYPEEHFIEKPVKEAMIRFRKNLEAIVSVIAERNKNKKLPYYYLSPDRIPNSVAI
Type: biochemical
Experimental: a) Method for determining the inhibitory activity against leucocyte 5-lipoxygenase:
Lipoxygenase activity was determined by a modification of the method of B.A. Jakschik et al. [Biochem. Biophys. Res. Commun., 95, 103 (1980)]. That is, rat basophilic leukemia cells (RBL-1, ATCC No. CRL 1378) were used as the source of 5-lipoxygenase. The cells were contacted with a test compound in 60 µl of 0.17 M Trishydrochloride buffer (pH 7.4) containing […] calcium chloride, 3.3 mM adenosine triphosphate and 1 mM glutathione at 37°C for 5 minutes. Then,-50 µl of 60 µM arachidonic acid was added to the reaction mixture and the mixture was allowed to stand at 37° C for 5 minutes. To the mixture were added 200 µl of methanol and 13-hydroxylinoleic acid as the internal standard, followed by thorough shaking. The mixture was allowed to stand at -20 C for 30 minutes and then centrifuged at 12000 r.p.m. for 10 minutes. After the supernatant was evaporated to dryness in a stream of nitrogen, 200 µl of 75% aqueous methanol was added to the residue. The resulting solution (100 µl) was subjected to high performance liquid chromatography to quantitatively determine 5-HETE (5-hydroxyeicosatetraenoic acid). The absorption at 234 nm was measured with a UV absorption monitor and the amount of 5-HETE produced was determined from the peak area corrected by the peak of the internal standard. The test was carried out using the test compound at various concentrations and the concentration that inhibits 50% enzyme activity was determined as the inhibitory activity.
`CCCCCCCCCCCN(O)C(=O)CCCCCN1C(=O)CCC1=O` [Compound 2] was tested, and the IC50 was 20 nM.
`CCCCCCCCCCCC(=O)N(O)CCCCCN1CCCC1=O` [Compound 6] was tested, and the IC50 was 25 nM.
Work on `CCCCCCCCCCCN(O)C(C)=O` [Compound 10] yielded an IC50 of 34 nM.
In the case of `CCCCCCCCCCCN(O)C(=O)c1ccccc1` [Compound 12], the IC50 is reported as 300 nM.
With `CCCCCCCCCCCC(=O)N(O)CCCN1C(=O)CCC1=O` [Compound 3] the IC50 was 20 nM.
With `CCCCCCCCCCCN(O)C(=O)CCC(=O)OC` [Compound 7] the IC50 was 38 nM.
`CCCCCCCCCCCN(O)C(=O)CCC` [Compound 11] gave an IC50 of 44 nM.
`CCCCCCCCCCCC(=O)N(O)CCCCCN1C(=O)c2ccccc2C1=O` [Compound 4] showed an IC50 of 40 nM.
Work on `CCCCCCCCCCCC(=O)N(O)CCCCCN1C(=O)CCCC1=O` [Compound 5] yielded an IC50 of 36 nM.
`CCCCCCCCCCCC(=O)N(O)CCCCCCCN1C(=O)CCC1=O` [Compound 1] showed an IC50 of 20 nM.

— patent publication EP0365210A1, “Hydroxamic acid derivatives” (KYOWA HAKKO KOGYO CO., LTD., priority 1988, dated 1990)
